From patent US20240270762A1, “PENICILLIN-BINDING PROTEIN INHIBITORS” (priority 2021, published 2024)
Converted amounts (≈) assume the structure as drawn.

Columns and labels:
[1] = molecular target: T1, PBP3 from Pseudomonas aeruginosa (PAO1) (Pseudomonas aeruginosa, UniProt G3XD46); test: Bocillin-FL fluorescence polarization competition binding, P. aeruginosa PBP3; conditions: Binding affinity to P. aeruginosa PBP3; fluorescence polarization competition binding assay using Bocillin-FL; read-out: P. aeruginosa PBP3 Potency
T1 construct: made in house
Procedure, shortened: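 Purified PBPs pre-incubated with inhibitor (E. coli PBP3 1.5 μM, 30 min; P. aeruginosa PBP3 0.75 μM, A. baumannii PBP1a 1 μM and PBP3 0.2 μM, 15 min), then Bocillin-FL 0.1 μM (0.05 μM for PBP1a) added; FP read up to 60 min. EC50 = concentration halving bound Bocillin-FL.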

[2] = system: B. humptydooensis ATCC BAA-2767; test: microbe, parasite or virus in culture; assay type: cell-based; conditions: Burkholderia humptydooensis, ATCCBAA2767, read-out: Minimum inhibitory concentration (MIC), B. humptydooensis ATCC BAA-2767
P. aeruginosa CDC-0095 = test: microbe, parasite or virus in culture; assay type: cell-based; conditions: Pseudomonas aeruginosa, CDC0095, read-out: Minimum inhibitory concentration, P. aeruginosa CDC-0095
P. aeruginosa CDC-0090 = test: microbe, parasite or virus in culture; assay type: cell-based; conditions: Pseudomonas aeruginosa, CDC0090, read-out: Minimum inhibitory concentration, P. aeruginosa CDC-0090
A. baumannii PBP2 = A. baumannii PBP2 (Acinetobacter baumannii, UniProt D0C8Z9); test: Bocillin-FL competition binding via gel filtration, A. baumannii PBP2
Procedure, shortened: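 Enzyme was pre-incubated with rising inhibitor concentrations, then Bocillin-FL was added and incubated 15 minutes more. Bound probe was separated by gel filtration and fluorescence read. EC50 came from fitting fraction of PBP labelled versus inhibitor concentration to a Hill equation with ymin, ymax and n.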

P. aeruginosa ATCC 35151 = test: microbe, parasite or virus in culture; assay type: cell-based; conditions: Pseudomonas aeruginosa, ATCC35151, read-out: Minimum inhibitory concentration, P. aeruginosa ATCC 35151
P. aeruginosa ATCC 27853 = test: microbe, parasite or virus in culture; assay type: cell-based; conditions: Pseudomonas aeruginosa, ATCC27853, read-out: Minimum inhibitory concentration, P. aeruginosa ATCC 27853
A. baumannii CDC-0045 = test: microbe, parasite or virus in culture; assay type: cell-based; conditions: Acinetobacter baumannii, CDC0045, read-out: MIC, A. baumannii CDC-0045
A. baumannii CDC-0033 = test: microbe, parasite or virus in culture; assay type: cell-based; conditions: Acinetobacter baumannii, CDC0033, read-out: MIC, A. baumannii CDC-0033
P. aeruginosa CDC-0110 = test: microbe, parasite or virus in culture; assay type: cell-based; conditions: Pseudomonas aeruginosa, CDC0110, read-out: Minimum inhibitory concentration, P. aeruginosa CDC-0110
A. baumannii ATCC 19606 = test: microbe, parasite or virus in culture; assay type: cell-based; conditions: Acinetobacter baumannii, ATCC19606, read-out: MIC, A. baumannii ATCC 19606

Chain of A. baumannii PBP2 (D0C8Z9 whole entry): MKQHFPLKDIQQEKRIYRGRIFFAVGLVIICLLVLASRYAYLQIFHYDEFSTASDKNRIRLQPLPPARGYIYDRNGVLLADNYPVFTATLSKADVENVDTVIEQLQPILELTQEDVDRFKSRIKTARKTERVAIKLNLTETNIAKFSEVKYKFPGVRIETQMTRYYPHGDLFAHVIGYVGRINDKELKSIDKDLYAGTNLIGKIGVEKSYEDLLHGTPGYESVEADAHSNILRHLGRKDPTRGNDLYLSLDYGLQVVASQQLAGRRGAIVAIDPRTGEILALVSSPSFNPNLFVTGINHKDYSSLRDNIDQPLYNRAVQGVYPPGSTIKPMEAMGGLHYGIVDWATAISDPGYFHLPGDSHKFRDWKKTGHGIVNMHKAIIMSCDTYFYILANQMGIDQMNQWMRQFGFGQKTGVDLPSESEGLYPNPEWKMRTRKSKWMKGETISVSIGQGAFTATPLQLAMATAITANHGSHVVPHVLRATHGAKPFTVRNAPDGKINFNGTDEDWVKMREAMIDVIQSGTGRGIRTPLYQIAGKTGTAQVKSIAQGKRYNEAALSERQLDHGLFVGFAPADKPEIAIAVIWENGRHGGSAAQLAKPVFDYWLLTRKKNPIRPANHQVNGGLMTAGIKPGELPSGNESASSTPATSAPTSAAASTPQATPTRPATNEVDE
T1 sequence (G3XD46 whole entry): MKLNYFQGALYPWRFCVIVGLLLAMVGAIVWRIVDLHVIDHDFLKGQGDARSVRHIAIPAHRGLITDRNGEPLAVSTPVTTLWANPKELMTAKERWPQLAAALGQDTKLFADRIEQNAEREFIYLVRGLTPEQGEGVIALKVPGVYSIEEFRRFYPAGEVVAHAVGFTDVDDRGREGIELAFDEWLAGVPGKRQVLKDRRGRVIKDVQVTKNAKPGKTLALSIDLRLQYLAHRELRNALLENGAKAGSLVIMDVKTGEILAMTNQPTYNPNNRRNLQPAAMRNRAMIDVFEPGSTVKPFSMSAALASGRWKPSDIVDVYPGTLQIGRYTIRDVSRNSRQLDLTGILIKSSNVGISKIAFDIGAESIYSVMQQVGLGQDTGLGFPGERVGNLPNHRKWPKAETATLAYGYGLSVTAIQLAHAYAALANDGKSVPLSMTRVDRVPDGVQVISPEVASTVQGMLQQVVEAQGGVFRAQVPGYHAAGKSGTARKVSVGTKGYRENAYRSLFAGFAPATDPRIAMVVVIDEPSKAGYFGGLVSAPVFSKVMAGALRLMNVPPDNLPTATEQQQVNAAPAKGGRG

Structure (SMILES) | IC50 [1] [µM] | MIC [2] [µg/mL] | MIC (P. aeruginosa CDC-0095) [µg/mL] | MIC (P. aeruginosa CDC-0090) [µg/mL] | EC50 (A. baumannii PBP2) [µM] | MIC (P. aeruginosa ATCC 35151) [µg/mL] | MIC (P. aeruginosa ATCC 27853) [µg/mL] | MIC (A. baumannii CDC-0045) [µg/mL] | MIC (A. baumannii CDC-0033) [µg/mL] | MIC (P. aeruginosa CDC-0110) [µg/mL] | MIC (A. baumannii ATCC 19606) [µg/mL]
O=C(O)c1cccc2c1OB(O)[C@@H](NC(=O)C(NC(=O)N1CCN(CC(F)(F)F)C(=O)C1=O)c1ccc(P(=O)(O)O)cc1)C2 (stereo partly drawn) [Example 4, (3R)-3-(2-(2,3-dioxo-4-(2,2,2-trifluoroethyl)piperazine-1-carboxamido)-2-(4-phosphonophenyl)acetamido)-2-hydroxy-3,4-dihydro-2H-benzo[e][1,2]oxaborinine-8-carboxylic acid] | < 10 |  |  |  |  |  |  |  |  |  | 
O=C(O)c1c(F)ccc2c1OB(O)[C@@H](NC(=O)C(NC(=O)N1CCN(C3CCN(C(=O)Nc4cccc(O)c4F)CC3)C(=O)C1=O)c1cc(F)c(O)c(O)c1Cl)C2 (stereo partly drawn) [Example 478, (3R)-3-(2-(2-chloro-5-fluoro-3,4-dihydroxyphenyl)-2-(4-(1-((2-fluoro-3-hydroxyphenyl)carbamoyl)piperidin-4-yl)-2,3-dioxopiperazine-1-carboxamido)acetamido)-7-fluoro-2-hydroxy-3,4-dihydro-2H-benzo[e][1,2]oxaborinine-8-carboxylic acid] | < 10 | 8 to 16 (≈ 9.77 to 19.5 µM) | 2 to 4 (≈ 2.44 to 4.88 µM) | 2 to 4 (≈ 2.44 to 4.88 µM) | 10 to 50 | < 1 | 2 to 4 (≈ 2.44 to 4.88 µM) | < 1 | 8 to 16 (≈ 9.77 to 19.5 µM) | 2 to 4 (≈ 2.44 to 4.88 µM) | < 1
O=C(O)c1c(F)ccc2c1OB(O)[C@@H](NC(=O)[C@@H](NC(=O)N1CCN(C3CCN(C(=O)Nc4ccc(O)cc4)CC3)C1=O)c1cc(F)c(O)c(O)c1Cl)C2 (single isomer, unassigned) [Example 467] | < 10 | 2 to 4 (≈ 2.59 to 5.18 µM) | < 1 | < 1 |  | < 1 | < 1 | < 1 | < 1 | < 1 | < 1
NCCN1CCN(C(=O)NC(C(=O)N[C@H]2Cc3cccc(C(=O)O)c3OB2O)c2ccc(P(=O)(O)O)cc2)C(=O)C1=O (stereo partly drawn) [Example 3, (3R)-3-(2-(4-(2-aminoethyl)-2,3-dioxopiperazine-1-carboxamido)-2-(4-phosphonophenyl)acetamido)-2-hydroxy-3,4-dihydro-2H-benzo[e][1,2]oxaborinine-8-carboxylic acid] | 10 to 50 |  |  |  |  |  |  |  |  |  | 
O=C(O)c1c(F)ccc2c1OB(O)[C@@H](NC(=O)[C@H](NC(=O)N1CCN(C3CCN(C(=O)Nc4ccc(O)cc4)CC3)C1=O)c1cc(F)c(O)c(O)c1Cl)C2 (single isomer, unassigned) [Example 468] | < 10 | < 1 | < 1 | < 1 | < 10 | < 1 | < 1 | < 1 | < 1 | < 1 | < 1
O=C(O)c1c(F)ccc2c1OB(O)[C@@H](NC(=O)C(NC(=O)N1CCN(CC3CCN(C(=O)c4cccc(O)c4)CC3)C(=O)C1=O)c1cc(F)c(O)c(O)c1Cl)C2 (stereo partly drawn) [Example 475, (3R)-3-(2-(2-chloro-5-fluoro-3,4-dihydroxyphenyl)-2-(4-((1-(3-hydroxybenzoyl)piperidin-4-yl)methyl)-2,3-dioxopiperazine-1-carboxamido)acetamido)-7-fluoro-2-hydroxy-3,4-dihydro-2H-benzo[e][1,2]oxaborinine-8-carboxylic acid] | < 10 | 2 to 4 (≈ 2.5 to 5 µM) | < 1 | < 1 | < 10 | < 1 | 2 to 4 (≈ 2.5 to 5 µM) | < 1 | 2 to 4 (≈ 2.5 to 5 µM) | < 1 | < 1
O=C(O)c1c(F)ccc2c1OB(O)[C@@H](NC(=O)C(NC(=O)N1CCN(C3CCN(C(=O)c4ccc(O)cc4O)CC3)C(=O)C1=O)c1cc(F)c(O)c(O)c1Cl)C2 (stereo partly drawn) [Example 476, (3R)-3-(2-(2-chloro-5-fluoro-3,4-dihydroxyphenyl)-2-(4-(1-(2,4-dihydroxybenzoyl)piperidin-4-yl)-2,3-dioxopiperazine-1-carboxamido)acetamido)-7-fluoro-2-hydroxy-3,4-dihydro-2H-benzo[e][1,2]oxaborinine-8-carboxylic acid] | < 10 | < 1 | < 1 | < 1 | < 10 | < 1 | < 1 | < 1 | < 1 | < 1 | < 1
O=C(O)c1c(F)ccc2c1OB(O)[C@@H](NC(=O)C(NC(=O)N1CCN(C3CCN(C(=O)c4ccc(O)cc4)CC3)C(=O)C1=O)c1cc(F)c(O)c(O)c1Cl)C2 (stereo partly drawn) [Example 427, (3R)-3-(2-(2-chloro-5-fluoro-3,4-dihydroxyphenyl)-2-(4-(1-(4-hydroxybenzoyl)piperidin-4-yl)-2,3-dioxopiperazine-1-carboxamido)acetamido)-7-fluoro-2-hydroxy-3,4-dihydro-2H-benzo[e][1,2]oxaborinine-8-carboxylic acid] | < 10 | < 1 | 2 to 4 (≈ 2.54 to 5.09 µM) | 2 to 4 (≈ 2.54 to 5.09 µM) | < 10 | < 1 | < 1 | < 1 | 2 to 4 (≈ 2.54 to 5.09 µM) | < 1 | < 1
CCN1CCN(C(=O)NC(C(=O)N[C@H]2Cc3cccc(C(=O)O)c3OB2O)c2ccc(P(=O)(O)O)cc2F)C(=O)C1=O (stereo partly drawn) [Example 1, (3R)-3-(2-(4-ethyl-2,3-dioxopiperazine-1-carboxamido)-2-(2-fluoro-4-phosphonophenyl)acetamido)-2-hydroxy-3,4-dihydro-2H-benzo[e][1,2]oxaborinine-8-carboxylic acid] | < 10 |  |  |  |  |  |  |  |  |  | 
O=C(O)c1c(F)ccc2c1OB(O)[C@@H](NC(=O)C(NC(=O)N1CCN(C3CCN(C(=O)Cc4cccc(O)c4)CC3)C(=O)C1=O)c1cc(F)c(O)c(O)c1Cl)C2 (stereo partly drawn) [Example 474, (3R)-3-(2-(2-chloro-5-fluoro-3,4-dihydroxyphenyl)-2-(4-(1-(2-(3-hydroxyphenyl)acetyl)piperidin-4-yl)-2,3-dioxopiperazine-1-carboxamido)acetamido)-7-fluoro-2-hydroxy-3,4-dihydro-2H-benzo[e][1,2]oxaborinine-8-carboxylic acid] | < 10 | < 1 | 2 to 4 (≈ 2.5 to 5 µM) | < 1 | < 10 | < 1 | 2 to 4 (≈ 2.5 to 5 µM) | < 1 | < 1 | < 1 | < 1
CCN1CCN(C(=O)NC(C(=O)N[C@H]2Cc3cccc(C(=O)O)c3OB2O)c2cc(P(=O)(O)O)ccc2F)C(=O)C1=O (stereo partly drawn) [Example 2, (3R)-3-(2-(4-ethyl-2,3-dioxopiperazine-1-carboxamido)-2-(2-fluoro-5-phosphonophenyl)acetamido)-2-hydroxy-3,4-dihydro-2H-benzo[e][1,2]oxaborinine-8-carboxylic acid] | < 10 |  |  |  |  |  |  |  |  |  | 
O=C(O)c1c(F)ccc2c1OB(O)[C@@H](NC(=O)C(NC(=O)N1CCN(CC3CCN(C(=O)Nc4cccc(O)c4)CC3)C(=O)C1=O)c1cc(F)c(O)c(O)c1Cl)C2 (stereo partly drawn) [Example 477, (3R)-3-(2-(2-chloro-5-fluoro-3,4-dihydroxyphenyl)-2-(4-((1-((3-hydroxyphenyl)carbamoyl)piperidin-4-yl)methyl)-2,3-dioxopiperazine-1-carboxamido)acetamido)-7-fluoro-2-hydroxy-3,4-dihydro-2H-benzo[e][1,2]oxaborinine-8-carboxylic acid] | < 10 | < 1 | < 1 | < 1 | < 10 | < 1 | < 1 | < 1 | 2 to 4 (≈ 2.45 to 4.91 µM) | < 1 | < 1
CS(=O)(=O)N1CCN(C(=O)N[C@H](C(=O)N[C@H]2Cc3cccc(C(=O)O)c3OB2O)c2ccc(P(=O)(O)O)cc2)C1=O (single isomer, unassigned) [Example 5] | 10 to 50 |  |  |  |  |  |  |  |  |  | 
